Values joined by “and” are separate entries in the source; they are usually repeats but may differ in a detail not shown here. Identical values can stand only once. Active and inactive are the calls of the source.
Legend:
Hexokinase HKDC1 = biological target: T1, Hexokinase HKDC1 (Homo sapiens, UniProt Q2TB90); test: HKDC1 hexokinase inhibitors, SAR follow-up, biochemical, set 2 (AID 588355); format: functional
T1 sequence (Q2TB90 whole entry): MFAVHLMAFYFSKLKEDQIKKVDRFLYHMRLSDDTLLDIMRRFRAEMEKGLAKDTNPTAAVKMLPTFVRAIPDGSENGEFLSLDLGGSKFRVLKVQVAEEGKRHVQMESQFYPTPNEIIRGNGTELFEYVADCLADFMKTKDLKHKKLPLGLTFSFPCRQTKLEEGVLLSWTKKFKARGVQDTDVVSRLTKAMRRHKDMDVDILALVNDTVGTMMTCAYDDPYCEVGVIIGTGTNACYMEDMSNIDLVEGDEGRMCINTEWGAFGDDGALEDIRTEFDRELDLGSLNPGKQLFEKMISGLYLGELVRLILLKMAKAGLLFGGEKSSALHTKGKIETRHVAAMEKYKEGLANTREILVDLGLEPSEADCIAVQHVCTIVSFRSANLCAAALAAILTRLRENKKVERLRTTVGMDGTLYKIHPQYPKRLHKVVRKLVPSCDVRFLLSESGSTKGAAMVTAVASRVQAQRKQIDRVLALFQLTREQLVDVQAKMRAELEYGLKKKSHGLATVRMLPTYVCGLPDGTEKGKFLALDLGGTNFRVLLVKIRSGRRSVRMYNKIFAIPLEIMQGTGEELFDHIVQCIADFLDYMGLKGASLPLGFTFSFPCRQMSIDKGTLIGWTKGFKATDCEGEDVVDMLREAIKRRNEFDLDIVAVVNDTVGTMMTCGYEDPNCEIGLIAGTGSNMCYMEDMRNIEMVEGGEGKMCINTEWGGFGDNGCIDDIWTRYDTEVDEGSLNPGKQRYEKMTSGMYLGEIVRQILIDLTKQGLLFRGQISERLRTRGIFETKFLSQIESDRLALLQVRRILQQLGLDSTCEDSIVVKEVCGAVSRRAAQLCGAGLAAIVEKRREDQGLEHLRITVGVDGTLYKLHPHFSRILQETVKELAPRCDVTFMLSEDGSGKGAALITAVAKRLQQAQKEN

Hexokinase-1 = Hexokinase-1 (Homo sapiens, UniProt P19367); test: HK1 enzyme inhibition by HKDC1 hits, SAR follow-up, selectivity assay for HKDC1 inhibitor project, biochemical, set 2, resazurin fluorescence coupled readout (AID 588356); format: functional
[1] = biological target: T2, Apoptotic protease-activating factor 1 (Homo sapiens, UniProt O14727); test: activation of Apaf-1 mediated apoptosis – fluorescent, uHTS hits, dose response (AID 588554); format: functional
T2 sequence (O14727 whole entry): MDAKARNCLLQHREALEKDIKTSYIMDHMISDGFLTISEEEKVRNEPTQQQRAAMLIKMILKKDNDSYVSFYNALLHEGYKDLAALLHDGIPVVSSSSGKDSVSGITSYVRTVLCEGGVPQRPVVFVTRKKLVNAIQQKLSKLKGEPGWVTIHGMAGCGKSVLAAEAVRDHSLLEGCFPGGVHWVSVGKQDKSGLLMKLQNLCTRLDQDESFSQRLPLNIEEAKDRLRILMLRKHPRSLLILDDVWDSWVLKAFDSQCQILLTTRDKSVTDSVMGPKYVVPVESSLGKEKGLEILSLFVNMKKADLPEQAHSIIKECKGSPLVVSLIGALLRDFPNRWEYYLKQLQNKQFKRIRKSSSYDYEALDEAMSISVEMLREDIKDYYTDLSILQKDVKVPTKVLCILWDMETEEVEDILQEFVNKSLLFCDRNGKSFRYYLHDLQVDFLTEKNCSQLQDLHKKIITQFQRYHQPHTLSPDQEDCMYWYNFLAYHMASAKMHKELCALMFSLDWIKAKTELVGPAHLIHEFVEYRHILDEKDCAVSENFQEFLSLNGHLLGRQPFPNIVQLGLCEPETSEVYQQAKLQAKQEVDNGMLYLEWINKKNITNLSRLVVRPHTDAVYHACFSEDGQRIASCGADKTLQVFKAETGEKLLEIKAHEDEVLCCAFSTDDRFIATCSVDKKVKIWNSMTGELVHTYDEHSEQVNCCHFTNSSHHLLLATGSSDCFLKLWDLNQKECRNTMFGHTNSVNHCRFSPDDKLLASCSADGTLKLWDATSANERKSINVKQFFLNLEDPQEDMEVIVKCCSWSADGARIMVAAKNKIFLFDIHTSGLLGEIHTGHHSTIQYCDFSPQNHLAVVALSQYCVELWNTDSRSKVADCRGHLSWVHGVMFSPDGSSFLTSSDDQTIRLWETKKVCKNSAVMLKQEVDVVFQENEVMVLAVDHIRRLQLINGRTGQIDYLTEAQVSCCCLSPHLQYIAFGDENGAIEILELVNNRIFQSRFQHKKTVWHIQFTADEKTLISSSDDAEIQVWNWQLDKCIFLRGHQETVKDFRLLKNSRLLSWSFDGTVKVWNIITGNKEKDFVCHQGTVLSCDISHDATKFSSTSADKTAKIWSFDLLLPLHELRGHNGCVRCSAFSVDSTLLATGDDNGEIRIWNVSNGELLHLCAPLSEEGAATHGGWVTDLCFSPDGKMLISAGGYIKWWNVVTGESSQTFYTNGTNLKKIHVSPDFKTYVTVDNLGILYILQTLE

[2] = growth suppression of beta-catenin-knockout colon cells, dose response, cell-based, HCT116, human colon tumor (AID 1045); format: functional;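 also: HCT116 colon tumor cells with beta catenin knocked out; cells exposed to compound for 60 hours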
[3] = growth suppression of PTEN-null colon cells, dose response, cell-based, HCT116 PTEN knockout (AID 1047); format: functional;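 also: HCT116 colon tumor cells with PTEN knocked out; cells exposed to compound for 60 hours before readout; potency for loss of cell viability measured by luminescence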
Cytochrome P450 2D6 [4] = biological target: T3, Cytochrome P450 2D6 (Homo sapiens, UniProt P10635);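 also: CYP2D6 member of a cytochrome P450 panel assay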
Cytochrome P450 2D6 [5] = biological target: T3, Cytochrome P450 2D6; remark: listed apart in the source
Cytochrome P450 1A2 = biological target: T4, Cytochrome P450 1A2 (Homo sapiens, UniProt P05177);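 also: PubChem cytochrome P450 panel assay, CYP1A2 panel member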
T4 sequence (P05177 whole entry): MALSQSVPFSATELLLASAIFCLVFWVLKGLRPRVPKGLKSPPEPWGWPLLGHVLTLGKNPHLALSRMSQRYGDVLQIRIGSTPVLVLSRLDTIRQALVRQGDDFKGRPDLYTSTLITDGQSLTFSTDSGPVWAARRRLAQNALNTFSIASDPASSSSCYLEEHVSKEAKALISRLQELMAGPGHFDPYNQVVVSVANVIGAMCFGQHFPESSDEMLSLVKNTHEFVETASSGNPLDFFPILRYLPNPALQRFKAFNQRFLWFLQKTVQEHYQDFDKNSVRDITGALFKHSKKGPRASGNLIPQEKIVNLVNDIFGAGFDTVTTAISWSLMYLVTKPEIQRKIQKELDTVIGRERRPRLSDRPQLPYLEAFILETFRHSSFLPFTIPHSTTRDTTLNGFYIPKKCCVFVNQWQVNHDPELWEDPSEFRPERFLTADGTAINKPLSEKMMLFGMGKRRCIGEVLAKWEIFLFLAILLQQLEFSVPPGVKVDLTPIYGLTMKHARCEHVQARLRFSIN

T3 sequence (P10635 whole entry): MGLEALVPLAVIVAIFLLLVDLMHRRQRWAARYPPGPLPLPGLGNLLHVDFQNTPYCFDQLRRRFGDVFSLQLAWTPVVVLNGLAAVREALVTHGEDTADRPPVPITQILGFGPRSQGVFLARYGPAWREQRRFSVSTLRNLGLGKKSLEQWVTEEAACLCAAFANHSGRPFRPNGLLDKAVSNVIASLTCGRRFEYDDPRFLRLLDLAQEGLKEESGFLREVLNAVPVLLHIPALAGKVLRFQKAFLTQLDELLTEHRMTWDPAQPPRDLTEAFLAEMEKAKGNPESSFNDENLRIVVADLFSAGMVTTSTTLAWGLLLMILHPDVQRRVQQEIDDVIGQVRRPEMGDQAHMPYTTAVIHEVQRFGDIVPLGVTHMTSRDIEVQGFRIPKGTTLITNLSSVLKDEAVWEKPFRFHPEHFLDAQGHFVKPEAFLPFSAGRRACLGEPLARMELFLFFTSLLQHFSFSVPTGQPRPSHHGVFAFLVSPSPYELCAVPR
Chain of Hexokinase-1 (P19367 whole entry): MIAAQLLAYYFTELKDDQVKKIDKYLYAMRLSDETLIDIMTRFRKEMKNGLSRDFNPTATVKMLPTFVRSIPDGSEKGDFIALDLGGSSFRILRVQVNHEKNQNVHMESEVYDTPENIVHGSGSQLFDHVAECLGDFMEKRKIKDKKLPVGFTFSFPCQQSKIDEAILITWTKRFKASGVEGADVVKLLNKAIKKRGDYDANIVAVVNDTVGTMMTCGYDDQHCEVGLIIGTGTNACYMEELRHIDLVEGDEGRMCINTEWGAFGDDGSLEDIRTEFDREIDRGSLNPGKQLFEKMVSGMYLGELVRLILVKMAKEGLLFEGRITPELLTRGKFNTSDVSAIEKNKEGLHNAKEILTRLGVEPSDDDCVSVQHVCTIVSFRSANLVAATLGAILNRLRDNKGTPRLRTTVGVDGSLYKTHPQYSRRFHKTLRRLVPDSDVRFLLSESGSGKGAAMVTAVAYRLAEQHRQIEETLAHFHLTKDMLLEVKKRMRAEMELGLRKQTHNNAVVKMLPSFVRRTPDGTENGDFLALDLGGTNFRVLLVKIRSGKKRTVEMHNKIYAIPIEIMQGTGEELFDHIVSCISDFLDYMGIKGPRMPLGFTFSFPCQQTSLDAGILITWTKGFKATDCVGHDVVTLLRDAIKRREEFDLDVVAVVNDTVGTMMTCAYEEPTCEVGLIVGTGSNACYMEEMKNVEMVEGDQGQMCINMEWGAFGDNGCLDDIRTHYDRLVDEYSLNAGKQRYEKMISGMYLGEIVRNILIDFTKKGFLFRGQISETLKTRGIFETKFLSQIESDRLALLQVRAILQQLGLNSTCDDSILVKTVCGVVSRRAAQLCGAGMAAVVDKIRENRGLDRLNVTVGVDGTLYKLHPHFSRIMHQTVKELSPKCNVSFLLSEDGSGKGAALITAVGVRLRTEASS

**Q.** Which results are given for COc1cc2c(cc1OC)-c1cc(NCCN(C)C)nc(=O)n1CC2?
**A.** IC50 (Hexokinase HKDC1): > 80 µM (inactive); IC50 (Hexokinase-1): > 80 µM (inactive)

**Q.** With CCOc1ccc(C(=O)/C=C/Nc2ccc(S(=O)(=O)N=C(N)N)cc2)cc1 as the molecule, how does the EC50 [1] read?
**A.** The EC50 was 6.28 µM (active).

**Q.** What about the EC50 [2] of the same molecule?
**A.** Its EC50 is 21.8 µM (active).

**Q.** What about the EC50 [3] of the same molecule?
**A.** The EC50 was 16.3 µM (active).

**Q.** With Cc1ncc([N+](=O)[O-])n1CC(C)O (stereo not drawn) [SECNIDAZOLE] as the molecule, how does the AC50 (Cytochrome P450 2D6 [4]) read?
**A.** The AC50 was “inconclusive”.

**Q.** Which AC50 (Cytochrome P450 2D6 [5]) does the source give for Cc1cccc(C)c1N=C1NCCCS1 [XYLAZINE] here?
**A.** Its AC50 is 39.8 µM (inconclusive) and 10 µM (inconclusive).

**Q.** What about the AC50 (Cytochrome P450 1A2) of the same molecule?
**A.** The AC50 was “inactive”.

— ChEMBL document CHEMBL1201862, “PubChem BioAssay data set” (2004)
